Reference: patent US20150126465A1, “PROCESS FOR PRODUCING DERIVATIVES OF PYROSTEGIA VENUSTA, DERIVATIVES OF PYROSTEGIA VENUSTA, PHARMACEUTICAL COMPOSITIONS AND ITS USES” (priority 2011, published 2015)
Values after ≈ are worked out from the molar mass of the structure shown. Read-outs that look alike come from different tables or passages of the source.

How the values were obtained:
Assay type in all cases: cell-based
Candida glabrata ATCC = assay: MIC/CFM against Candida sp. strains; conditions: Nakaseomyces glabratus, Table 14, Candida glabrata ATCC
[1] = tested on: Candida albicans USP 1565; assay: MIC by microdilution (CLSI M27-A2); conditions: Candida albicans, USP1565; Table 12, C. albicans USP 1565, 48 h, 35° C.; read-out: MIC
[2] = tested on: Candida guilhermondii USP; assay: MIC/CFM by microdilution (CLSI M27-A2); conditions: for MIC: read-out: MIC
Candida krusei USP 2223 = assay: MIC by microdilution (CLSI M27-A2); conditions: Pichia kudriavzevii, USP2223, read-out: MIC
Candida krusei ATCC 6258 = assay: MIC/CFM by microdilution (CLSI M27-A2); conditions: Pichia kudriavzevii, ATCC6258, read-out: MIC
[3] = tested on: Candida tropicalis USP 1658; assay: MIC by microdilution (CLSI M27-A2); conditions: Candida tropicalis, USP1658; Table 12, C. tropicalis USP 1658, 48 h, 35° C.; read-out: MIC
[4] = tested on: Candida tropicalis USP B3; assay: MIC by microdilution (CLSI M27-A2); conditions: Candida tropicalis, USPB3; Table 14, C. Tropicalis UPS B3; read-out: MIC
[5] = tested on: Candida parapsilosis ATCC 22019; assay: MIC/CFM by microdilution (CLSI M27-A2); conditions: Lodderomyces parapsilosis, ATCC22019; for MIC: read-out: MIC
Candida albicans USP 1 = assay: MIC/CFM by microdilution (CLSI M27-A2); conditions: Candida albicans, USP1; for MIC: read-out: MIC
Protocol: (§1) Pure substances termed P1 and P2 previously dissolved in 20% DMSO, were diluted in RPMI medium, with final concentrations of 96 μg.mL-1. […] The same was also tested individually, diluted in RPMI medium, with initial concentration of 1 μL.mL-1. […] Cultures of Candida sp. were prepared and standardized in […] saline solution at 0.85%. For inoculums standardization, a spectrophotometer equipment was used, with wavelength at 530 nm and absorbance adjustment between 0.130 and 0.150, having as white the saline solution free of inoculum or any other contaminant, corresponding to concentrations of 10^6 CFU/mL. In this condition the inoculum “mother” was diluted 50 times and from this inoculum “child” the dilution was performed 20 times to obtain a standard inoculum in 10^3 cells per well. […] To aid in the growth view, were added to the wells dye 50 μL 2,3,5-triphenyltetrazolium chloride (TTC) at 5 mg.mL “1, being performed the readings after 4 hours of incubation. Prior to the addition of dye, aliquots of 96-well plate were transferred to Petri with Agar-Sabouraud Dextrose to determine the Minimum Fungicidal Concentration. Plates were incubated for 24 hours at 35° C.

[6] = tested on: Candida albicans OF-M3-20; assay: MIC/CFM by microdilution (CLSI M27-A2); conditions: Candida albicans, OFM320; for MIC: read-out: MIC
Protocol: as §1

[7] = tested on: Candida albicans OF-M7-19; assay: MIC/CFM by microdilution (CLSI M27-A2); conditions: Candida albicans, OFM719; for MIC: read-out: MIC
Protocol: as §1

[8] = tested on: Phomopsis longicolla (soy isolate); assay: MIC by microdilution, filamentous fungi (CLSI M38-A); conditions: Diaporthe longicolla, 168 h; Table 13, Phomopsis longicolla- soy, 7 days, 28° C.; read-out: MIC
Protocol: (§2) Pure substances termed P1 and P2 previously dissolved in 20% DMSO, were diluted in RPMI medium, with final concentrations of 96 μg.mL-1. […] Cultures of filamentous fungi described below were inoculated in Agar-Batata Dextrose medium and inoculated for 7 days, at 28° C. Colonies of cultures inoculated for 7 days in an oven at 28° C. were shrouded with 0.85% saline solution, scraped and then transferred to conical tubes. After resting for 5 minutes, the supernatant was transferred to new conical tubes for subsequent quantification in spectrophotometer, at 530 nm, with the transmittance adjustment of 80-82% for A. niger and 70% for other microorganisms. After adjustment, there was a 1:50 dilution in RPM. The determination of Minimum Inhibitory Concentration was performed after 7 days, at 28° C. After the incubation period, aliquots of 96-well plates were transferred to Petri plates with Potato Dextrose Agar, to determine the Minimum Fungicidal Concentration. Plates were inoculated for more 7 days, at 28° C.

[9] = tested on: Microsporum canis ATCC 32903; assay: as above; conditions: ATCC32903, 168 h; Table 13, Microsporum canis ATCC 32903, 7 days, 28° C.; read-out: MIC
Protocol: as §2

[10] = tested on: Trichophyton menthagrophyton ATCC 9533; assay: as above; conditions: ATCC9533, 168 h; Table 13, Trichophyton menthagrophyton ATCC 9533, 7 days, 28° C.; read-out: MIC
Protocol: as §2

[11] = tested on: Candida albicans ATCC 10231; assay: MIC/CFM by microdilution (CLSI M27-A2); conditions: Candida albicans, ATCC10231; for MIC: read-out: MIC
C. Albicans USP 2 = assay: MIC/CFM against Candida sp. strains

MIC (Candida glabrata ATCC): < 0.5 µg/mL
MIC [1]: < 0.125 µg/mL
MIC ([2]; Candida, Table 12, C. guilhermondii USP, 48 h, 35° C.): 2 µg/mL (≈ 4.81 µM)
MIC ([2]; Table 14, Candida guilhermondi USPATCC): 1 µg/mL (≈ 2.4 µM)
MIC (Candida krusei USP 2223; Table 12, C. krusei USP 2223, 48 h, 35° C.): 1 µg/mL (≈ 2.4 µM)
MIC (Candida krusei USP 2223; Table 14, C. krusei USP 2223): 4 µg/mL (≈ 9.61 µM)
MIC (Candida krusei ATCC 6258; Table 12, C. krusei ATCC 6258, 48 h, 35° C.): < 1 µg/mL
MIC (Candida krusei ATCC 6258; Table 14, C. krusei ATCC): 1 µg/mL (≈ 2.4 µM)
MIC [3]: < 2 µg/mL
MIC [4]: < 0.5 µg/mL
MIC ([5]; Table 12, C. parapsilosis ATCC 22019, 48 h, 35° C.): 1 µg/mL (≈ 2.4 µM)
MIC ([5]; Table 14, C. parapsilosis ATCC 22019): 1 µg/mL (≈ 2.4 µM)
MIC (Candida albicans USP 1; Table 12, C. albicans USP 1, 48 h, 35° C.): < 0.125 µg/mL
MIC (Candida albicans USP 1; Table 14, C. Albicans USP 1): 1 µg/mL (≈ 2.4 µM)
MIC ([6]; Table 12, C. albicans OF M3-20, 48 h, 35° C.): < 0.125 µg/mL
MIC ([6]; Table 14, C. Albicans OF M3-20): < 0.5 µg/mL
MIC ([7]; Table 12, C. albicans OF M7-19, 48 h, 35° C.): < 0.125 µg/mL
MIC ([7]; Table 14, C. Albicans OF M7-19): < 0.5 µg/mL
MIC [8]: < 0.125 µg/mL
MIC [9]: 2 µg/mL (≈ 4.81 µM)
MIC [10]: 2 µg/mL (≈ 4.81 µM)
MIC ([11]; Table 12, C. albicans ATCC 10231, 48 h, 35° C.): 4 µg/mL (≈ 9.61 µM)
MIC ([11]; Table 14, C. Albicans ATCC 10231): < 0.5 µg/mL
MIC (C. Albicans USP 2; Table 14, C. Albicans USP 2): < 0.5 µg/mL
SMILES: Clc1ccc(COC(Cn2ccnc2)c2ccc(Cl)cc2Cl)c(Cl)c1 (centres unmarked) [Miconazol]
MFC (Candida glabrata ATCC; read-out: CFM (Minimum Fungicidal Concentration)): 2 µg/mL (≈ 4.81 µM)
MFC ([2]; Table 14, Candida guilhermondi USPATCC, read-out: CFM (Minimum Fungicidal Concentration)): 1 µg/mL (≈ 2.4 µM)
MFC ([5]; Table 14, C. parapsilosis ATCC 22019, read-out: CFM (Minimum Fungicidal Concentration)): 1 µg/mL (≈ 2.4 µM)
MFC (Candida albicans USP 1; Table 14, C. Albicans USP 1, read-out: CFM (Minimum Fungicidal Concentration)): 4 µg/mL (≈ 9.61 µM)
MFC ([6]; Table 14, C. Albicans OF M3-20, read-out: CFM (Minimum Fungicidal Concentration)): < 0.5 µg/mL
MFC ([7]; Table 14, C. Albicans OF M7-19, read-out: CFM (Minimum Fungicidal Concentration)): < 0.5 µg/mL
MFC ([11]; Table 14, C. Albicans ATCC 10231, read-out: CFM (Minimum Fungicidal Concentration)): 1 µg/mL (≈ 2.4 µM)
MFC (C. Albicans USP 2; Table 14, C. Albicans USP 2, read-out: CFM (Minimum Fungicidal Concentration)): < 0.5 µg/mL
